These results are taken from patent publication US20240207163A1, “RETINOL DERIVATIVE COMPOSITION AND USE THEREOF” (Inertia Shanghai Biotechnology Co., Ltd., priority 2021, published 2024).

“And” between values parts separate entries of the source, which are not always exact repeats. Equal values may be shown once.

Holding throughout (assay type): cell-based
The test system of one data set is Elastin mRNA. Description: Various anti-aging related mRNA expression experiment (qPCR), Elastin. The note with it: HFF-1 cells, 5 μg/mL HPR, 9 μg/mL retinyl propionate, alone or in combination, individual replicates. The procedure: (§1) RNA extraction: a cell sample was taken, a supernatant was removed, 1 mL of a TRIZON reagent was added into each well of a 6-well plate, the cells were stood, cracked, and transferred to a 1.5-mL EP tube, 0.2 mL of chloroform was added, and the mixture was shaken, uniformly mixed, stood on ice, and centrifuged at 12,000 rpm/min at 4° C. for 15 min; about 400 μL of an obtained supernatant was taken, isopropanol with the same volume was added, the mixture was lightly shaken, stood on ice at 4° C., and centrifuged at 12,000 rpm/min for 10 min; an obtained supernatant was removed, 1 mL of 75% ethanol was added into an obtained precipitate, an EP tube was shaken to float the precipitate to achieve a washing effect, the obtained product was centrifuged at 7,500 rpm/min at 4° C. for 10 min; an obtained supernatant was removed, a part of ethanol was left, the product was centrifuged at 7,500 rpm/min at 4° C. for 5 min, and residual ethanol was removed from the inner wall of the tube; and an obtained supernatant was removed, the liquid was aspirated, and a certain amount of RNA-free water was added for resuspension and dissolution. 2 μL of the product was analyzed on a SpectraMax iD3 multifunctional microplate reader for detecting the RNA concentration and A260/A280 value.
(§2) cDNA synthesis: the mRNA was subjected to reverse transcription into cDNA by using a HiFiScript cDNA synthesis kit.
(§3) Fluorescence quantification: the expression of the Elastin mRNA in the cell sample was detected by mixing an UltraSYBR Mixture premixed solution and the cDNA, and loading the mixture into a machine.
(§4) 3.1 Experimental content: an effect of 5 μg/mL of HPR and 9 μg/mL of retinyl propionate alone or in combination on expressions of collagen-related mRNAs in HFF-1 cells.
(§5) 3.2 Experimental method: the HFF-1 cells were seeded in a 96-well plate (3,000 cells/mL and […]) and administrated in a 5 μg/mL HPR group, a 9 μg/mL retinyl propionate group, and a 5 μg/mL HPR+9 μg/mL retinyl propionate group. A blank control was set at the same time. Total RNA of the cells was extracted at 24 h, 48 h, and 72 h and the expressions of the collagen-related mRNAs were detected by qPCR. (The specific operation steps referred to section 1.2)
(§6) 3.3 Experimental results: data was input by the Excel, subjected to statistical processing by a Prism (Version 7) software package, and expressed as meantstandard error. Each data was subjected to a one-way analysis of variance and p<0.05 was considered to be statistically different.
In general terms: Quantitative PCR measures a nucleic acid by following its amplification.

Another data set concerns Col-IV mRNA. The data set is described as follows: Various anti-aging related mRNA expression experiment (qPCR), Col-IV. The note with it: HFF-1 cells, 5 μg/mL HPR, 9 μg/mL retinyl propionate, alone or in combination, individual replicates. The procedure:
as §1, §2, §3, §4, §5, §6

The next data set concerns RARB mRNA. The data set is described as follows: Various anti-aging related mRNA expression experiment (qPCR), RARB. The note with it: HFF-1 cells, 5 μg/mL HPR, 9 μg/mL retinyl propionate, alone or in combination, individual replicates. The protocol:
as §1, §2, §3, §4, §5, §6

Another data set relates to HFF-1 cells. Description: Cytotoxicity experiment (CCK-8 cell viability). The note with it: 24 h, 5 μg/mL HPR, 9 μg/mL retinyl propionate, alone or in combination, individual replicates. The procedure:
2.1 Experimental content: an effect of 5 μg/mL of HPR and 9 μg/mL of retinyl propionate alone or in combination on the viability of HFF-1 cells.
2.2 Experimental method: the HFF-1 cells were seeded in a 96-well plate (3,000 cells/mL and 100 μL per well) and administrated in a 5 μg/mL HPR group, a 9 μg/mL retinyl propionate group, and a 5 μg/mL HPR+9 μg/mL retinyl propionate group. A blank control was set at the same time. The cell viability after 24 h of the administration treatment was detected using a CCK-8 kit.
2.3 Experimental results: data was input by the Excel, subjected to statistical processing by a Prism (Version 7) software package, and expressed as meantstandard error. Each data was subjected to a one-way analysis of variance and p<0.05 was considered to be statistically different.

The next data set relates to CRBPI mRNA. The data set is described as follows: Various anti-aging related mRNA expression experiment (qPCR), CRBPI. To be noted: HFF-1 cells, 5 μg/mL HPR, 9 μg/mL retinyl propionate, alone or in combination, individual replicates. The protocol:
as §1, §2, §3, §4, §5, §6

For `CCC(=O)OC/C=C(C)/C=C/C=C(C)/C=C/C1=C(C)CCCC1(C)C` [retinyl propionate], the “Elastin mRNA expression (blank control 1)” value was 1.778 and 16.11 and 1.157 in the data set with Elastin mRNA (after 24 h); 1.866 and 2.77 and 3.01 with Elastin mRNA (after 48 h); 5.736 and 6.727 and 1.275 in the data set on Elastin mRNA (after 72 h). Further, the “Col IV mRNA expression (blank control 1)” value in the data set on Col-IV mRNA (after 24 h) was 1 and 1.357 and 1.079; in the data set on Col-IV mRNA (after 48 h), 1.385 and 1.485 and 1.117; in the data set on Col-IV mRNA (after 72 h), 1.625 and 1.189 and 0.9794. Besides, the “RARB mRNA expression (blank control 1)” value in the data set on RARB mRNA (after 24 h) was 1.301 and 1.214 and 2.828; in the data set with RARB mRNA (after 48 h), 1.301 and 1.602 and 1.079; with RARB mRNA (after 72 h), 1.803 and 1.165 and 1.301. Besides, in the data set on HFF-1 cells, the “viability of HFF-1 cells (blank control 100)” value is 100.2 and 100.8 and 95.66. Also, the “CRBPI mRNA expression (blank control 1)” value with CRBPI mRNA (after 24 h) is 1.58 and 1.866 and 1.042; in the data set on CRBPI mRNA (after 48 h) it was 1.275 and 1.647 (2×); in the data set with CRBPI mRNA (after 72 h), 3.272 and 1.087 and 1.072.

For `CC1=C(/C=C/C(C)=C/C=C/C(C)=C/C(=O)OCC(=O)C(C)(C)C)C(C)(C)CCC1` [HPR, hydroxypinacolone retinoate], the “Elastin mRNA expression (blank control 1)” value with Elastin mRNA (after 24 h) is 1.778 and 14.52 and 1.029; with Elastin mRNA (after 48 h), 2.928 and 2.809 and 3.317; with Elastin mRNA (after 72 h), 1.963 and 3.52 and 4.112. Moreover, the “Col IV mRNA expression (blank control 1)” value in the data set with Col-IV mRNA (after 24 h) is 1.357 and 1.014 and 1.223; with Col-IV mRNA (after 48 h) it was 1.474 and 1.094 and 1.945; with Col-IV mRNA (after 72 h), 1.165 and 1.265 and 0.9395. In addition, the “RARB mRNA expression (blank control 1)” value with RARB mRNA (after 24 h) was 1.079 and 3.732 and 5.063; in the data set with RARB mRNA (after 48 h) it was 1.659 and 1.189 and 3.605; in the data set on RARB mRNA (after 72 h) it was 2.395 and 1.042 and 4.925. In addition, the “viability of HFF-1 cells (blank control 100)” value in the data set with HFF-1 cells is 104.9 and 101.4 and 100.3. Moreover, the “CRBPI mRNA expression (blank control 1)” value with CRBPI mRNA (after 24 h) is 3.223 and 1.094 and 1.597; in the data set with CRBPI mRNA (after 48 h), 1.094 and 1.488 and 1.58; in the data set with CRBPI mRNA (after 72 h) it was 4.017 and 1.79 and 3.295.
